Measurements: PMC4753534 (Journal of Medicinal Chemistry, 2015)
Like-named read-outs stand apart in the source and are kept apart here.

Assays:
[1] = mouse, i.p., 24 h, previously reported, cited from earlier work
[2] = biological target: H1-histamine receptor (H1HR) (Homo sapiens, UniProt P35367); experiment: H1HR inhibition assay; format: cell-based; details: read-out: H1HR inhibition
[3] = test system: hepatitis B virus, HCV replicon, herpes simplex virus-1, human cytomegalovirus, vaccinia virus, dengue virus, influenza A (H1N1) virus, respiratory syncytial …; format: cell-based
[4] = test system: HCV-Luc (HCV JFH-1 strain, genotype 2a); experiment: microbe, parasite or virus in culture; format: cell-based; details: Hepatitis C virus, GETYPE2A, values in nM

Sequence of H1-histamine receptor (H1HR) (P35367 whole entry): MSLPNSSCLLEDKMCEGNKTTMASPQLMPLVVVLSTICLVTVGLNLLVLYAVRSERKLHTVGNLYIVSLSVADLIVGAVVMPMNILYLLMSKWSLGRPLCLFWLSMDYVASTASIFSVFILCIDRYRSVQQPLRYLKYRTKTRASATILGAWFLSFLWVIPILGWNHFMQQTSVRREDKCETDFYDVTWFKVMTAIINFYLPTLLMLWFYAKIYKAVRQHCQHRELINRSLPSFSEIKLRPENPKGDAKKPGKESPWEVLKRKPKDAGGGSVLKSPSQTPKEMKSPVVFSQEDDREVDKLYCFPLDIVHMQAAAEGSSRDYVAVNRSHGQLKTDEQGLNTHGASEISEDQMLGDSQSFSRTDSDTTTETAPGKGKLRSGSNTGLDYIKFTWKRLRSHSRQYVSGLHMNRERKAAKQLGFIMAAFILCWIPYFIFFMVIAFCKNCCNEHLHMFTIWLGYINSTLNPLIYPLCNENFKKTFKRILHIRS

CN1CCN(C(c2ccc(Cl)cc2)c2ccc(Cl)cc2)CC1 [Compound 30, 1-(Bis(4-chlorophenyl)methyl)-4-methylpiperazine]
ALT levels (Alanine transaminase; mouse serum, 10 mg/kg i.p., most time points except t = 2 and 4 h): ≤ 80 U/L
hepatotoxicity (Alanine transaminase; mouse, single 10 mg/kg i.p., ALT also elevated with vehicle only): no clear hepatotoxicity was detected

CN1CCN([C@@H](c2ccccc2)c2ccc(Cl)cc2)CC1 [(S)-2, reference compound]
T1/2 Liver ([1]; 50 mg/kg): 1.99 h

Clc1ccc([C@H](c2ccccc2)N2CCNCC2)cc1 [(S)-1]
inhibition at 0.01 µM [2]: ~10%
T1/2 Liver ([1]; 10 mg/kg): 4.7 h

CCN1CCN([C@@H](c2ccccc2)c2ccc(Cl)cc2)CC1 [(S)-10, (S)-1-((4-Chlorophenyl) (phenyl)methyl)-4-ethylpiperazine]
antiviral activity in the NIAID antiviral screen [3]: Little or no antiviral activity was detected

NCCOCCN1CCN(C(c2ccccc2)c2ccc(Cl)cc2)CC1 (racemic) [Rac-23, 2-(2-(4-((4-Chlorophenyl) (Phenyl)methyl)piperazin-1-yl)ethoxy)ethanamine]
EC50 [4]: < 8 nM
